ChEMBL document CHEMBL1201862, “PubChem BioAssay data set” (2004)
Values joined by “and” are separate entries in the source; they are usually repeats but may differ in a detail not shown here. Equal entries are not always repeated. Active and inactive are the calls of the source.

Key:
[1] = biological target: Ubiquitin carboxyl-terminal hydrolase BAP1 (Homo sapiens, UniProt Q92560); test: BAP1 deubiquitinase inhibitors, dose response, biochemical (AID 714); format: functional
[2] = M. tuberculosis H37Rv growth inhibitors, H37Rv strain (AID 1626); format: functional
HeLa = test: Cytotoxicity counterscreen assay for transcriptional activators of heat shock protein 70 (Hsp70). [Related pubchem assays: 1203, 1252 ]; format: functional; details: Homo sapiens;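 also: cells exposed to compound for 16 hours before readout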
[3] = biological target: Heat shock protein HSP 90-alpha (Homo sapiens, UniProt P07900); test: Luminescence-based dose response biochemical high throughput screening assay for inhibitors of the Heat Shock Protein 90 (HSP90). [Related pubchem assays: 1831 (Summary AID.), 1846 (Confirmation screen.), 1789 (Primary screen.)]
[4] = biological target: T1, Small ubiquitin-related modifier 1 (Homo sapiens, UniProt P63165); test: inhibitors of SUMO1 partner interactions, dose response, biochemical, FRET (AID 624383); format: functional; details: read-out: IC50_Mean
T1 sequence (P63165 whole entry): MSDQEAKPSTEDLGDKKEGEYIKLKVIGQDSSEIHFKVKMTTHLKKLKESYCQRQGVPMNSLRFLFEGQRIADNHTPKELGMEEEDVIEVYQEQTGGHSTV

[5] = biological target: T1, Small ubiquitin-related modifier 1; test: inhibitors of SUMO1 peptide binding, dose response, biochemical, fluorescence polarization, uHTS hits (AID 624382); format: functional; details: read-out: IC50_Mean
Vero = test: host cell cytotoxicity of antiviral hits, dose response, cytotoxicity control for West Nile virus antiviral project, secondary assay (AID 1650); format: functional; details: Chlorocebus sabaeus
[6] = biological target: Peroxisome proliferator-activated receptor gamma/Nuclear receptor coactivator 1 (Homo sapiens, UniProt P37231); test: TR-FRET dose response biochemical High Throughput Screening assay for agonists of the steroid receptor coactivator 1 (SRC-1) recruitment by the peroxisome proliferator-activated receptor gamma (PPAR gamma): non-selective agonists. [Related pubchem assays (depositor defined):AID1300, AID1808, AID504735, AID631]; format: protein assay
[7] = biological target: Peroxisome proliferator-activated receptor gamma/Nuclear receptor coactivator 2 (Homo sapiens, UniProt P37231); test: (§1) TR-FRET dose response biochemical High Throughput Screening assay for agonists of the steroid receptor coactivator 2 (SRC-2) recruitment by the peroxisome proliferator-activated receptor gamma (PPAR gamma): non-selective agonists. [Related pubchem assays: 1297, 1032 ]; format: functional
[8] = biological target: Peroxisome proliferator-activated receptor gamma/Nuclear receptor coactivator 3 (Homo sapiens, UniProt P37231); test: as §1, with “3 (SRC-3)” for “2 (SRC-2)”, “1301 (Confirmation screen.), 1048 (Primary screen.)]” for “1297, 1032 ]”; format: functional
[9] = biological target: Mitogen-activated protein kinase 10 (Homo sapiens, UniProt P53779); test: Dose response biochemical screening assay for inhibitors of c-Jun N-Terminal Kinase 3 (JNK3). [Related pubchem assays: 746 ]
Chain of Mitogen-activated protein kinase 10 (P53779 whole entry): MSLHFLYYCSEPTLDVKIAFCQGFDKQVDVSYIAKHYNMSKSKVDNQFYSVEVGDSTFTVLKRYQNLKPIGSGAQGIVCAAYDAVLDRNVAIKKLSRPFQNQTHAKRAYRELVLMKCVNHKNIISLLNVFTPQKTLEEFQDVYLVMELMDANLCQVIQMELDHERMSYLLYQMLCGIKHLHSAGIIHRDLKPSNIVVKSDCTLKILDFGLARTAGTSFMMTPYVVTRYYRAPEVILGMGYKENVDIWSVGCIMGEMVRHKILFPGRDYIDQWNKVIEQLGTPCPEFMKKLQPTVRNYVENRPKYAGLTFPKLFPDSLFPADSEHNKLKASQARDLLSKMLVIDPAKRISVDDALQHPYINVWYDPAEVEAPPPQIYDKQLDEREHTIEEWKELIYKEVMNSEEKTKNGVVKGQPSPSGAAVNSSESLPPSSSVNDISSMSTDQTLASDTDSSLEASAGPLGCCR

[10] = biological target: RNA-editing ligase 1, mitochondrial (Trypanosoma brucei brucei, UniProt P86926); test: TbREL1 ligase inhibitors, dose response, biochemical, fluorescence, Trypanosoma brucei (AID 1117295); format: functional
Chain of RNA-editing ligase 1, mitochondrial (P86926 whole entry): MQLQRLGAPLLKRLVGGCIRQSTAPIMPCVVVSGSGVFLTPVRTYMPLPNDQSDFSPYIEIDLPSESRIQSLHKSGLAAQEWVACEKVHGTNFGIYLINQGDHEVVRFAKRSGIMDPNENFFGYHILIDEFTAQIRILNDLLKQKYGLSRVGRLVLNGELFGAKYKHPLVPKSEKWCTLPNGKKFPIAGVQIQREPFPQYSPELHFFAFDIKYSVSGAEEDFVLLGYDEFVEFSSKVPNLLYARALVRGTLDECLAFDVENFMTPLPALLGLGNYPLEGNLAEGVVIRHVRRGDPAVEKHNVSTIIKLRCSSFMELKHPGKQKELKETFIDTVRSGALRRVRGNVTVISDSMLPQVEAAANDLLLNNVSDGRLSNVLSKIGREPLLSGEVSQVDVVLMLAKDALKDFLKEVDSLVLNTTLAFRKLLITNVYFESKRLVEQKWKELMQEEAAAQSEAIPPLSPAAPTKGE

Bcl-2-related protein A1 [11] = biological target: T2, Bcl-2-related protein A1 (Mus musculus, UniProt Q07440); test: Bfl-1 inhibitors, primary screen, biochemical, fluorescence polarization, FITC-Bid, mouse (AID 432)
T2 sequence (Q07440 whole entry): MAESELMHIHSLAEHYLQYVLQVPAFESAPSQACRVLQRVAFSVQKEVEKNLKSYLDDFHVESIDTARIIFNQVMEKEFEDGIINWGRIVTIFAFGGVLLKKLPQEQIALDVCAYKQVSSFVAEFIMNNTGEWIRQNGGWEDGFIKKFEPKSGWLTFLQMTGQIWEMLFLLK

Bcl-2-related protein A1 [12] = biological target: T2, Bcl-2-related protein A1; test: Bfl-1 inhibitors blocking BH3 peptide binding, confirmation, biochemical, TR-FRET, mouse Bfl-1 (AID 621);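 also: TR-FRET binding of GST-Bfl-1 to FITC-labelled Bid peptide via terbium antibody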
Mucolipin-3 = biological target: T3, Mucolipin-3 (Homo sapiens, UniProt Q8TDD5); test: Dose response cell-based high-throughput screening assay for agonists of the transient receptor potential channel ML3 (TRPML3). [Related pubchem assays: 1526, 1424, 1448 ]; format: functional
T3 sequence (Q8TDD5 whole entry): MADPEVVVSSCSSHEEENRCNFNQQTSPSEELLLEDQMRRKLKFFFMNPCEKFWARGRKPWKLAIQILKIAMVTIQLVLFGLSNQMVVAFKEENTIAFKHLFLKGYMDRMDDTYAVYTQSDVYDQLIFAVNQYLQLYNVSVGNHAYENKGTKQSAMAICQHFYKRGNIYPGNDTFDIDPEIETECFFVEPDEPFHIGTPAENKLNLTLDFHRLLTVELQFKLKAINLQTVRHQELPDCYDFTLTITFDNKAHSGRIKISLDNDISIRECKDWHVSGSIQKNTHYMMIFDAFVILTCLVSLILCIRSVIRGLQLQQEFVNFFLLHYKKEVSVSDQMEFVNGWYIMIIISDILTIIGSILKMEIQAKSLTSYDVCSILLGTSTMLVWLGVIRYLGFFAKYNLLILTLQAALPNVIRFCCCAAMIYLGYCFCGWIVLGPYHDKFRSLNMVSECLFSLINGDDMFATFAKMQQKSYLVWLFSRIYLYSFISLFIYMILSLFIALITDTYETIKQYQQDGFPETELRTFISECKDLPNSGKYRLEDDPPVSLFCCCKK

Ion channel NompC = Ion channel NompC (Danio rerio, UniProt Q7T1G6); test: Fluorescence counterscreen assay for TRPML3 agonists: dose response cell-based high-throughput screening assay to identify agonists of the transient receptor potential channel N1 (TRPN1). [Related pubchem assays: 1526, 1424, 1448 ]; format: functional
Chain of Ion channel NompC (Q7T1G6 whole entry): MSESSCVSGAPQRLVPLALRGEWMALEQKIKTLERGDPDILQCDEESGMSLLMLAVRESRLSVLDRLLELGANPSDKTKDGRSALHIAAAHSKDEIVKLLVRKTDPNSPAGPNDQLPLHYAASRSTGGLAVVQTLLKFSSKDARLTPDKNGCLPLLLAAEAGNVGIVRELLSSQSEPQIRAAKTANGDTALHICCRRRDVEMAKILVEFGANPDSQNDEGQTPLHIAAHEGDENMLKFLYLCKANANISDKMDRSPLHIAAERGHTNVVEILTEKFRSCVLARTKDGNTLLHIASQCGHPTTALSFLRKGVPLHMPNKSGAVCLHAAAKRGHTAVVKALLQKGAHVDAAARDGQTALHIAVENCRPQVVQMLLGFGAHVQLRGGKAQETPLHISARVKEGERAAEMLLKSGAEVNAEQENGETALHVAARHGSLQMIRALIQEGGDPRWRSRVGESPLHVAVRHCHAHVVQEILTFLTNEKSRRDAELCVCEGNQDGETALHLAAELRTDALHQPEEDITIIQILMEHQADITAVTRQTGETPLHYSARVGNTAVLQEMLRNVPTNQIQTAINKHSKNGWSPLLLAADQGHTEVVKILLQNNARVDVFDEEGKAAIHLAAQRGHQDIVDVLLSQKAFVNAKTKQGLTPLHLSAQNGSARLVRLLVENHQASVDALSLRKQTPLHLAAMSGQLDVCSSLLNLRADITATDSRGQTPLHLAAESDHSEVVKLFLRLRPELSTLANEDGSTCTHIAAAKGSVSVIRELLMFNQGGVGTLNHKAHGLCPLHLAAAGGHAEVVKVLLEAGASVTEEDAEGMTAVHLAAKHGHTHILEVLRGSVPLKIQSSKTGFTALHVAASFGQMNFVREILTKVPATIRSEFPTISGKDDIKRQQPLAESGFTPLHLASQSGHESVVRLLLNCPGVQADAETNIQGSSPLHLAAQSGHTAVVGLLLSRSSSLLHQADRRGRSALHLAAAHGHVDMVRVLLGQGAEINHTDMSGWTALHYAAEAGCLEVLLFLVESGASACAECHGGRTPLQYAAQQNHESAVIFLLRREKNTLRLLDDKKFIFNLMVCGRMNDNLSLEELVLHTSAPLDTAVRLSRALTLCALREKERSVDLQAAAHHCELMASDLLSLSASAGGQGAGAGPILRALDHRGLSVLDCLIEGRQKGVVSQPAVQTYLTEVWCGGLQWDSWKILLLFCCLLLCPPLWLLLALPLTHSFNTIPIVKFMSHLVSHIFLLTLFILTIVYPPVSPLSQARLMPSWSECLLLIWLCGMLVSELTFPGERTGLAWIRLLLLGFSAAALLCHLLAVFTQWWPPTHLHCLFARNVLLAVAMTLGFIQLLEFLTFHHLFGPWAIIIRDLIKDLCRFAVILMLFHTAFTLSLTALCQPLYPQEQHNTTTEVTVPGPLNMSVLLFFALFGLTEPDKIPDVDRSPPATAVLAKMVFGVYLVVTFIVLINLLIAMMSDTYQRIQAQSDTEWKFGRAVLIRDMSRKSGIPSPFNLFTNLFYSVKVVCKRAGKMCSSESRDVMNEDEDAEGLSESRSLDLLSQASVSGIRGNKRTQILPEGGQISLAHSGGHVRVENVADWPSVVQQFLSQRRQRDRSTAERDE

[13] = biological target: Glyceraldehyde-3-phosphate dehydrogenase (Homo sapiens, UniProt P04406)
Chain of Glyceraldehyde-3-phosphate dehydrogenase (P04406 whole entry): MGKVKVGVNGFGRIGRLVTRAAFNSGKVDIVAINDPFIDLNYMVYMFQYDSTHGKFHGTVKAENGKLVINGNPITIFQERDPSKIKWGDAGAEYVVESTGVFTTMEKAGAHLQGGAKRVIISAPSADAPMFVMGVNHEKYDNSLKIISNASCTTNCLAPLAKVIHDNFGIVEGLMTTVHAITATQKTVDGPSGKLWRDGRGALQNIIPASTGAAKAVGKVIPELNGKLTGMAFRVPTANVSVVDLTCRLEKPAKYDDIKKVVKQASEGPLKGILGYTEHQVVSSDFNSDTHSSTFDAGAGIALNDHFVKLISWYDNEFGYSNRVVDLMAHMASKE

Estrogen receptor beta [14] = biological target: T4, Estrogen receptor beta (Homo sapiens, UniProt Q92731);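 also: recombinant ER-beta bound to coactivator SRC1 peptide in presence of estradiol agonist; inhibitors block coactivator peptide binding and lower the FRET signal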
T4 sequence (Q92731 whole entry): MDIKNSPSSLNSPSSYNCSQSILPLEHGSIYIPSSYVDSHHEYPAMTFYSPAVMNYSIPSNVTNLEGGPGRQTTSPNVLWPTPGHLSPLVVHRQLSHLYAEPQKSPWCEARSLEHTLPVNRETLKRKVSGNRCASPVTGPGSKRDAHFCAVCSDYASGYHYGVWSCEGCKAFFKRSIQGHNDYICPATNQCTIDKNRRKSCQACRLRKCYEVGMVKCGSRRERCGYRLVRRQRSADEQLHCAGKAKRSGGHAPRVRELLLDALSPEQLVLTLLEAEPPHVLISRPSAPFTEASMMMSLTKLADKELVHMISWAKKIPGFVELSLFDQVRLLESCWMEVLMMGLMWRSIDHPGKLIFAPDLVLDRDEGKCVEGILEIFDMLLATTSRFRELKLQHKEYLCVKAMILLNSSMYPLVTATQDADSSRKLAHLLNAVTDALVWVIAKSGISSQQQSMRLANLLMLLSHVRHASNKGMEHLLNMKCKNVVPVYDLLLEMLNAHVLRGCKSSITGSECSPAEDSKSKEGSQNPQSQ

Estrogen receptor beta [15] = biological target: T4, Estrogen receptor beta; test: ERβ–SRC-3 coactivator interaction inhibitors, confirmation, orthogonal assay, biochemical, ELISA, streptavidin-HRP readout (AID 1060)
Bcl-2-related protein A1 [16] = biological target: T2, Bcl-2-related protein A1; test: Bfl-1 binding inhibitors, SAR follow-up, biochemical, fluorescence polarization (AID 1070)
Estrogen receptor = biological target: T5, Estrogen receptor (Homo sapiens, UniProt P03372);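 also: potency for inhibiting coactivator peptide recruitment to the receptor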
T5 sequence (P03372 whole entry): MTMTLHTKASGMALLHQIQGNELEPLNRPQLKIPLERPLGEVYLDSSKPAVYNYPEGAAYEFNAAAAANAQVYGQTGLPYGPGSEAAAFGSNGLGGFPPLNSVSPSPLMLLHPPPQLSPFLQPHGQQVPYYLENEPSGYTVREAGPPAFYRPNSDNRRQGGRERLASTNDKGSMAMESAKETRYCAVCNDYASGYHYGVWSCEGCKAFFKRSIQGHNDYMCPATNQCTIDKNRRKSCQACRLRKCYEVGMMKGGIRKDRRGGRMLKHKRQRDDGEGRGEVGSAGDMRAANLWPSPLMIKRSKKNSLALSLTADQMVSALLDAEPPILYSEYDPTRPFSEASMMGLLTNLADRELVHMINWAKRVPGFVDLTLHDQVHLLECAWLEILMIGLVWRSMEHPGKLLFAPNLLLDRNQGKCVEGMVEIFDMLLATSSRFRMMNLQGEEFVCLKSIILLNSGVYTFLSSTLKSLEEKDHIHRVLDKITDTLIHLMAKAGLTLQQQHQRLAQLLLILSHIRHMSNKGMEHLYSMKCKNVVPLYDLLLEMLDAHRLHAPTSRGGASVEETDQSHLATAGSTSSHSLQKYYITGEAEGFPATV

[17] = Counterscreen for IDE inhibitors: Luminescence-based cell-based high throughput dose response assay to identify compounds that are cytotoxic to HEK cells. [Related pubchem assays: 434962 (Primary screen (IDE inhibitors in singlicate)), 449730 (Counterscreen (Cytotoxicity in triplicate)), 435028 (Confirmation (IDE inhibitors in triplicate)) …; format: functional; details: HEK293
Insulin-degrading enzyme = biological target: T6, Insulin-degrading enzyme (Homo sapiens, UniProt P14735); test: Dose Response: Fluorescence polarization-based cell-based high throughput dose response assay for inhibitors of insulin-degrading enzyme (IDE). [Related pubchem assays: 434962 (Primary screen (IDE inhibitors in singlicate)), 449730 (Counterscreen (Cytotoxicity in triplicate)), 435028 (Confirmation (IDE inhibitors in triplicate)), 434984 (Summary …; format: functional
T6 sequence (P14735 whole entry): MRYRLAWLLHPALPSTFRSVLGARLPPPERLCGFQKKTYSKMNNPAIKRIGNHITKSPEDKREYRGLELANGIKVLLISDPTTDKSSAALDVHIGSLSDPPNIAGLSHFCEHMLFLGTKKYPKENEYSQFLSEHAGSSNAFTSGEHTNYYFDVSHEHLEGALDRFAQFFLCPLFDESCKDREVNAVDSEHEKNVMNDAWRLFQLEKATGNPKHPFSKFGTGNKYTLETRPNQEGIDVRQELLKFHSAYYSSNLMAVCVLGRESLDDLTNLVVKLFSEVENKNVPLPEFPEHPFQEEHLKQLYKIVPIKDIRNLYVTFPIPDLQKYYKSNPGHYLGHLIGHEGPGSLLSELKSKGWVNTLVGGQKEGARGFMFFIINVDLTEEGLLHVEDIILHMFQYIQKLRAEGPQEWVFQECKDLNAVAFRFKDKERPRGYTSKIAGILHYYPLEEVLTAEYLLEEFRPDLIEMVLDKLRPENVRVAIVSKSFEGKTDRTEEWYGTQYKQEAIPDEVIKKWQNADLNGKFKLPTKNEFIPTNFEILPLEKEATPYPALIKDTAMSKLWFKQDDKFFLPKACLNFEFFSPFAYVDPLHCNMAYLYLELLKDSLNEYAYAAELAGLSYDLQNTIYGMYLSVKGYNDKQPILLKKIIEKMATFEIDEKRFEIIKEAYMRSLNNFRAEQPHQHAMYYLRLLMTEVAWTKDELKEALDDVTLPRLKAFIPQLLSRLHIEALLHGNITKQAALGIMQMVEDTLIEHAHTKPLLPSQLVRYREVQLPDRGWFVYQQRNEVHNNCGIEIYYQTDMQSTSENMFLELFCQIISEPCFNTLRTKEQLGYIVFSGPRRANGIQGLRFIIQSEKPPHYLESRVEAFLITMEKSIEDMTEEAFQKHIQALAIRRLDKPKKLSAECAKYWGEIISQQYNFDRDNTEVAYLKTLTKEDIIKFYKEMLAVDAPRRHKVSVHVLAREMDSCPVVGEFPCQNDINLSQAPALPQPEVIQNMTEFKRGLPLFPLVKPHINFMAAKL

Chain of Ubiquitin carboxyl-terminal hydrolase BAP1 (Q92560 whole entry): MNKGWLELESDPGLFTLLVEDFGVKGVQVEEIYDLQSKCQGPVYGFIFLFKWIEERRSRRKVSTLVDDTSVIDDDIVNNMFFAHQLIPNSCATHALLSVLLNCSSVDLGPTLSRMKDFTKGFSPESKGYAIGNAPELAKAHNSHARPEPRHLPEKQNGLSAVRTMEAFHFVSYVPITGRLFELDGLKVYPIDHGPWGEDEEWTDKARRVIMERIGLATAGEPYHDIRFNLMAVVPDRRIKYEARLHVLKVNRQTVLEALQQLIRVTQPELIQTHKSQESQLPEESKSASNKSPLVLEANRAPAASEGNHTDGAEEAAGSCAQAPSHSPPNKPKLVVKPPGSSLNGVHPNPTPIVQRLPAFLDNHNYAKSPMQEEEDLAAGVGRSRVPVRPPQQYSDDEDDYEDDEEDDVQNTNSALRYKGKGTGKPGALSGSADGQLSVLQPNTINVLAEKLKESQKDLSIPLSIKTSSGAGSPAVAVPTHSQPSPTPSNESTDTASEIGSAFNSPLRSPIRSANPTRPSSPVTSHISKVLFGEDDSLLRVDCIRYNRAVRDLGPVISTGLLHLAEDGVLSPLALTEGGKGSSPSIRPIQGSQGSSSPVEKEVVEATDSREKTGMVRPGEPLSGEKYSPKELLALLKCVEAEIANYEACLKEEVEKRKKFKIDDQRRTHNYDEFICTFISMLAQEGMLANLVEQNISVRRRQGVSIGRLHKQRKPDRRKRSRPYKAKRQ

For CC(=O)C1=C(C)NC(SCC(=O)c2ccc(Cl)c(Cl)c2)=C(C#N)C1c1ccco1 (stereo unspecified), the IC50 [1] was > 50 µM (not active).
With O=C(CSc1nnc(-c2ccco2)o1)c1ccccc1Cl the IC50 [2] was > 100 µM (active).
For Cc1cccc(-c2noc(CCCC(=O)N3CCOCC3)n2)c1, the CC50 (HeLa) was > 99 µM (not active).
For COCCn1c(C)cc(C(=O)Cn2nc(C(=O)O)c3ccccc3c2=O)c1C, the IC50 [3] was 3.73 µM (active).
With O=C(O)c1cccc(NC(=S)NC(NC(=O)c2cccc([N+](=O)[O-])c2)C(Cl)(Cl)Cl)c1 (stereo unspecified) the IC50 [4] was 10.8 µM (active), the IC50 [3] was 9.85 µM (active) and the IC50 [5] was > 66.6 µM (inactive).
For O=C1/C(=C/c2ccco2)SC(=S)N1CCC(=O)N1CCCCC1CCO (stereo unspecified), the CC50 (Vero) was 13.4 µM (active).
With CCOC(=O)CC(=O)CSc1ncnc2c1oc1ccccc12 the EC50 [6] was > 79.4 µM (inactive), the EC50 [7] was > 26.5 µM (not active) and the EC50 [8] was > 79.4 µM (not active). For the same compound, the IC50 [9] was > 31 µM (not active).
In the case of COC(=O)C1=C(C)N(Cc2ccccc2C(F)(F)F)C(NCC2CC2)=NC1c1ccc(F)cc1 (stereo unspecified), the IC50 [10] is reported as > 96.6 µM (inactive).
In the case of COCCn1cnc2cc(C)c(C)cc21, the IC50 (Bcl-2-related protein A1 [11]) is reported as > 100 µM (not active) and the IC50 (Bcl-2-related protein A1 [12]) is reported as > 100 µM (not active).
In the case of CC1=CC(C)(C)N(C(=O)CSc2nnc(-c3ccccc3)o2)c2ccc(C)cc21, the EC50 (Mucolipin-3) is reported as 4.18 µM (active) and the EC50 (Ion channel NompC) is reported as > 29.9 µM (not active).
In the case of O=C(CSc1ncccc1-c1nc2ccccc2[nH]1)N1CCN(c2ccccc2F)CC1, the IC50 [9] is reported as 55.9 µM (not active).
With O=C(Nc1cnn(C23CC4CC(CC(C4)C2)C3)c1)c1cnn2c(C(F)(F)F)cc(-c3ccco3)nc12 the IC50 (Bcl-2-related protein A1 [11]) was 11.2 µM (active), the IC50 [13] was > 100 µM (not active) and the IC50 (Bcl-2-related protein A1 [12]) was 1.76 µM (active) and 12.3 µM (active). For the same compound, the IC50 (Estrogen receptor beta [14]) was > 50 µM (not active), the IC50 (Estrogen receptor beta [15]) was < 0.023 µM (not active) and the IC50 (Bcl-2-related protein A1 [16]) was 1.69 µM (active). For the same compound, the IC50 (Estrogen receptor) was 3.64 µM (active).
In the case of Cc1c(-c2cccc(Cl)c2)nc2ccccc2c1C(=O)OCC(=O)N(C)C1CCS(=O)(=O)C1 (stereo unspecified), the IC50 [17] is reported as 36.1 µM (not active) and the IC50 (Insulin-degrading enzyme) is reported as > 55.9 µM (not active).
For COC(=O)C1=C(C)N(Cc2ccccc2C(F)(F)F)C(NCc2ccc3c(c2)OCO3)=NC1c1ccc(C(F)(F)F)cc1 (stereo unspecified), the IC50 [10] was > 96.6 µM (inactive).
For Cc1ccc(S(=O)(=O)N(CC(=O)N2CCCCC2)c2cccc(C)c2)cc1, the EC50 (Mucolipin-3) was 1.24 µM (active) and the EC50 (Ion channel NompC) was > 29.9 µM (not active).
With CCOC(=O)c1c(NC(=O)CSc2nnc(CNc3ccc(F)cc3)o2)sc(C)c1C the IC50 [1] was 29.1 µM (active).
